Measured values: ChEMBL document CHEMBL1201862, “PubChem BioAssay data set” (2004)
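Where inhibition never reached the appropriate level, the endpoint shown equals the highest concentration tested. Otherwise, values were interpolated linearly from a five-concentration, 48-hour dose response in 96-well plates. GI50 is the concentration that inhibits growth by half.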 Calls of active or inactive are those of the source. Cut-off read from the data, not from the text of the source: active = GI50 up to about 1.1 µM and inactive = higher.

Experiments:
Test in all cases: NCI anticancer screen, dose series, 48 h
[1] = tested on: CCRF-CEM
[2] = tested on: DU-145
[3] = tested on: HL-60
[4] = tested on: HOP-62
[5] = tested on: Hs-578T
[6] = tested on: K562
[7] = tested on: KM12
[8] = tested on: MDA-MB-435
[9] = tested on: MOLT-4
[10] = tested on: Malme-3M
[11] = tested on: NCI-H226
[12] = tested on: NCI-H23
[13] = tested on: OVCAR-8
[14] = tested on: RPMI-8226
[15] = tested on: SF-268
[16] = tested on: SR
[17] = tested on: TK-10
[18] = tested on: UACC-62
[19] = tested on: HCC 2998
[20] = tested on: SF-539

Measured: GI50

S=C1CC(c2ccccc2)Sc2ccc(Cl)cc2N1 (stereo unspecified)
inactive: [1] > 100 µM | [2] 42.9 µM | [3] 24.4 µM | [4] 45.6 µM | [5] 16.4 µM | [6] 16.2 µM | [7] 56.6 µM | [8] 13.4 µM | [9] 18.7 µM | [10] > 100 µM | [11] > 100 µM | [12] 30.8 µM | [13] 43.4 µM | [14] 90.4 µM | [15] 37.9 µM | [16] 20.8 µM | [17] 36.8 µM | [18] 48.1 µM

COc1ccc(N2C(=O)C3c4[nH]c5c(C)cccc5c4C4CCC(c5ccccc5)CC4C3C2=O)cc1 (stereo unspecified)
inactive: [1] 1.28 µM | [2] 11.7 µM | [19] > 10 µM | [4] 14 µM | [5] 12.4 µM | [7] 12.6 µM | [8] 12.3 µM | [9] 3.4 µM | [11] 10.4 µM | [12] 24.7 µM | [13] 15.6 µM | [14] 7.55 µM | [15] 6.65 µM | [17] 32.1 µM | [18] > 10 µM

COc1ccc(NC(=O)c2cc(NC(=O)/C=C/c3ccccc3)c(OC)c(OC)c2)cc1
inactive: [1] 7 µM | [2] 16.3 µM | [3] 6.19 µM | [4] 31.5 µM | [5] 43.5 µM | [6] 13.4 µM | [7] 3.83 µM | [8] 3.07 µM | [9] 6 µM | [10] 18.2 µM | [11] 6.64 µM | [12] > 100 µM | [14] 3.83 µM | [15] 56.8 µM | [20] 5.38 µM | [16] 4.03 µM | [17] > 100 µM | [18] 3.9 µM

O=S(=O)(/N=C(\NO)Nc1ccc(Cl)cc1)c1cccc2nsnc12
inactive: [1] 26.1 µM | [2] 41.3 µM | [3] 13.4 µM | [4] > 100 µM | [5] 29.2 µM | [6] 19.7 µM | [7] 31 µM | [8] 23 µM | [9] 12.8 µM | [10] 21.2 µM | [11] 81.1 µM | [12] 45.2 µM | [13] 34.3 µM | [15] 34.4 µM | [20] 59.3 µM | [17] 55.7 µM | [18] 21.6 µM

O=C1c2ccccc2-c2ccc(/N=[N+](/[O-])c3ccc4c(c3)C(=O)c3ccccc3-4)cc21
inactive: [1] > 100 µM | [2] > 100 µM | [19] > 100 µM | [3] > 100 µM | [4] 71.4 µM | [5] > 100 µM | [6] > 100 µM | [7] > 100 µM | [8] > 100 µM | [9] > 100 µM | [10] > 100 µM | [11] > 100 µM | [12] > 100 µM | [13] > 100 µM | [14] > 100 µM | [15] > 100 µM | [17] > 100 µM | [18] > 100 µM

C=C(C)[C@@H]1CCC2=C[C@@H](OC2=O)[C@@H](C(=C)C)C2=CC(C(=O)O)=C(C1)O2
inactive: [1] 38.7 µM | [2] > 100 µM | [19] > 100 µM | [3] 78 µM | [4] > 100 µM | [5] > 100 µM | [6] 41 µM | [7] 80.2 µM | [8] > 100 µM | [9] 46.3 µM | [10] > 100 µM | [11] > 100 µM | [12] > 100 µM | [13] > 100 µM | [14] 40.6 µM | [15] > 100 µM | [20] > 100 µM | [17] > 100 µM | [18] > 100 µM

COC(=O)[C@](C)(Cc1ccccc1)NC(=O)[C@@H](C)N1[C@@H](c2ccccc2)COC1(C)C
inactive: [1] 89.7 µM | [3] 63.5 µM | [4] > 100 µM | [5] 24.5 µM | [6] 48.1 µM | [7] 22.2 µM | [8] 48.8 µM | [9] 34.4 µM | [10] 44.6 µM | [11] 56.2 µM | [12] 51.9 µM | [13] 78.5 µM | [14] 39.5 µM | [15] 85.7 µM | [20] > 100 µM | [16] 27.5 µM | [17] > 100 µM | [18] 63.5 µM

CCOC(=O)C(=O)CC(=O)C1=C(c2ccccc2OC)CC(c2cccs2)=CC1=O
inactive: [1] 37.1 µM | [2] > 100 µM | [3] 55 µM | [4] 45.4 µM | [5] 2.75 µM | [6] 23.4 µM | [7] 34.3 µM | [8] 35.9 µM | [9] 37.1 µM | [10] > 100 µM | [11] > 100 µM | [12] > 100 µM | [13] > 100 µM | [14] 65.8 µM | [15] > 100 µM | [20] 67.1 µM | [17] > 100 µM | [18] > 100 µM

CCOC(=O)N/N=C(\CC)OCC
inactive: [1] > 100 µM | [2] > 100 µM | [19] > 100 µM | [3] > 100 µM | [4] > 100 µM | [5] > 100 µM | [6] > 100 µM | [7] > 100 µM | [9] > 100 µM | [10] > 100 µM | [13] > 100 µM | [15] > 100 µM | [20] > 100 µM | [16] > 100 µM | [17] > 100 µM | [18] > 100 µM

CN1CCC2(CC1)C(=O)N(NC(N)=O)C(=O)C2c1ccccc1 (stereo unspecified)
inactive: [1] > 100 µM | [2] > 100 µM | [19] > 100 µM | [3] > 100 µM | [4] > 100 µM | [5] > 100 µM | [6] > 100 µM | [7] > 100 µM | [8] > 100 µM | [9] > 100 µM | [10] > 100 µM | [11] > 100 µM | [12] > 100 µM | [13] > 100 µM | [14] > 100 µM | [15] > 100 µM | [20] > 100 µM | [17] > 100 µM | [18] > 100 µM

CC(C)=NC(C(=O)O)C(C)(C)S (stereo unspecified)
inactive: [1] > 100 µM | [2] > 100 µM | [3] > 100 µM | [4] > 100 µM | [5] > 100 µM | [6] > 100 µM | [7] > 100 µM | [8] > 100 µM | [9] > 100 µM | [10] > 100 µM | [11] > 100 µM | [12] > 100 µM | [13] > 100 µM | [14] > 100 µM | [15] > 100 µM | [20] > 100 µM | [16] > 100 µM | [17] > 100 µM | [18] > 100 µM

CC(C)CC(N)C(=O)O (stereo unspecified)
inactive: [1] > 100 µM | [2] > 100 µM | [3] > 100 µM | [4] > 100 µM | [5] > 100 µM | [6] > 100 µM | [7] > 100 µM | [8] > 100 µM | [9] > 100 µM | [10] > 100 µM | [11] > 100 µM | [12] > 100 µM | [13] > 100 µM | [14] > 100 µM | [15] > 100 µM | [20] > 100 µM | [17] > 100 µM | [18] > 100 µM

NC(Cc1ccc(S(=O)(=O)O)cc1)C(=O)NC(Cc1ccc(S(=O)(=O)O)cc1)C(=O)NC(Cc1ccc(S(=O)(=O)O)cc1)C(=O)NC(Cc1ccc(S(=O)(=O)O)cc1)C(=O)O (stereo unspecified)
inactive: [1] > 100 µM | [2] > 100 µM | [19] > 100 µM | [3] > 10 µM | [4] > 100 µM | [5] > 100 µM | [7] 3.92 µM | [8] > 100 µM | [9] > 100 µM | [10] 68.5 µM | [11] > 100 µM | [12] > 100 µM | [13] > 100 µM | [14] > 100 µM | [15] > 100 µM | [20] > 100 µM | [17] > 100 µM | [18] > 100 µM

COc1cc(O)c2c(O)c3c(=O)oc(C)cc3c(OC)c2c1 [PAEPALANTINE]
inactive: [1] 21.4 µM | [2] 41.6 µM | [3] 27.3 µM | [4] 30.3 µM | [5] 29.6 µM | [6] 23 µM | [7] 27.5 µM | [8] 18.3 µM | [9] 23 µM | [10] 21.4 µM | [12] 23.6 µM | [13] 27.2 µM | [14] 20 µM | [15] 34.3 µM | [20] 21 µM | [16] 26.1 µM | [17] 29 µM | [18] 21.9 µM

CC1=NCC[N+]1(CCc1ccccc1)Cc1ccccc1 (stereo unspecified)
inactive: [1] 34.5 µM | [2] > 100 µM | [19] 35.7 µM | [3] 16.6 µM | [4] > 100 µM | [5] 16 µM | [6] 2.94 µM | [7] 47.2 µM | [10] 20.4 µM | [11] 65 µM | [12] 19.8 µM | [13] 37.3 µM | [14] 13.7 µM | [15] 27.6 µM | [16] 13.4 µM | [17] 48.1 µM | [18] 75.2 µM
